Laboratory results from US6355428B1, “Nucleic acid ligand interaction assays” (Genelabs Technologies, Inc., priority 1998, dated 2002).

Assays:
[1] = test system: CCGCGCC (GC-rich) DNA duplex (SEQ ID NO: 6); assay: SPA (scintillation proximity) direct binding assay, G/C-rich indicator duplex
Description: This technology can be applied to studies of ligand binding as disclosed herein. Example 13, below, describes the use of the assay in a high throughput screening method, using the SPA detection system. In this example, the first oligonucleotide is labeled with biotin, and is then tightly bound to streptavidin-coated SPA beads via the strong biotin/streptavidin interaction. These beads are impregnated with scintillant. The second oligonucleotide is labeled with a weak β-emitter, such as ^3H or ^33P. The radioactive second oligonucleotide is mixed with a solution of the beads under conditions at which the first and second oligonucleotides exist primarily as single strands, as described above. The signal will thus be low, as the oligonucleotides are non-hybridized. When ligand is added, the duplex form is stabilized, and the increased proximity of the radioactive isotope (e.g., ^3H, ^33P) in the second oligonucleotide causes the bead to which the first oligonucleotide is bound to scintillate. A signal thus indicates the presence of an effective binding ligand molecule; test sequences giving higher signals indicate the relative preference for different sequences.
The data in Table II compare raw signal counts from SPA assays using three different oligonucleotides and three concentrations (0, 100, and 500 nM) of the DNA binding drug distamycin. The oligonucleotides used were G/C-rich (CCGCGCC; SEQ ID NO: 6), A/T-rich (CTTTATTATTTT; SEQ ID NO: 2), or mixed sequence (GCGGTATTT; SEQ ID NO: 12) DNA duplexes. One strand of the duplex was synthesized with a 5′-biotin label, the other strand was labeled with ^33P, as described in Example 13.
Indicator oligonucleotides as shown in Table 1 were used in this assay, as shown in Table II and FIGS. 4A-E. One strand of each duplex was labeled with biotin at the 5′-end, and the complementary strand was 3′-labeled with ^33P. […] In the absence of ligand, and under these conditions, the oligonucleotides exist in single-stranded conformation. As a result, the oligonucleotide containing the radioactive label is not in close proximity to the SPA bead, and the light given off by the beads is low, i.e., at background. As a duplex-stabilizing ligand is added, the radioactive ^33P is brought into close proximity to the SPA bead, and the light emitted from the SPA bead increases. Accordingly, each of five known DNA-binding compounds was added in increasing concentrations, and the effect on scintillation count was observed, giving the results shown in FIGS. 4A-E.

[2] = test system: G/C rich sequence 5′-CGCGCC-3′ (SEQ ID NO: 7) F/Q indicator pair; assay: Fluorescence quenching direct binding assay, G/C rich DNA; settings: change in fluorescence similar to single-stranded controls
Method: (§1) The specific examples described in this section employ fluorescence quenching as the detection system. In these examples, because conditions are adjusted to maintain the oligonucleotides in single-stranded form in the absence of the ligand, the assay starts with the system at a high or maximum level of fluorescence, and fluorescence generally decreases, depending on binding affinity, as the ligand is added.
(§2) In the Figure legends, RNA oligonucleotides are denoted by an “r” at the beginning of the sequence, and single stranded controls by “ss” at the end of the sequence. These single stranded sequence, are used alone in control experiments, which thus employ only an “F” strand and no complementary quenching strand. Any quenching of fluorescence that is not due to hybridization can thus be acounted for. Maximum quenching expected on complete hybridization of these oligonucleotides is 85-90%; therefore some signal remains after complete hybridization. […]
(§3) According to the general method described above, increasing amounts of netropsin or actinomycin, respectively, were added to mixtures of selected F/Q indicator oligonucleotide pairs, whose sequences are shown in the legends of FIGS. 1 and 3. […] The Figures show the level of fluorescence observed, relative to a control having no added drug, for each indicator pair (or single strand) as the level of added drug was increased. […]

[3] = test system: 5′-GCGGTATTT-3′ (SEQ ID NO: 12) F/Q indicator pair; assay: Fluorescence quenching direct binding assay, mixed DNA; settings: increasing netropsin; tRNA added; room temperature
Method: as §1, §2, §3

[4] = test system: 5′-CTTTTTTTTT-3′ (SEQ ID NO: 1) F/Q indicator pair; assay: Fluorescence quenching direct binding assay, A/T rich DNA; settings: increasing netropsin; tRNA added; room temperature
Method: as §1, §2, §3

[5] = test system: RNA 5′-rCUAGAUCUGA-3′ (SEQ ID NO: 23) double stranded RNA probe; assay: Fluorescence quenching direct binding assay, RNA; settings: change in fluorescence similar to single-stranded controls
Method: as §1
In the Figure legends, RNA oligonucleotides are denoted by an “r” at the beginning of the sequence, and single stranded controls by “ss” at the end of the sequence. These single stranded sequence, are used alone in control experiments, which thus employ only an “F” strand and no complementary quenching strand. Any quenching of fluorescence that is not due to hybridization can thus be acounted for. Maximum quenching expected on complete hybridization of these oligonucleotides is 85-90%; therefore some signal remains after complete hybridization. The signal is plotted so that it is normalized to the control signal in the absence of ligand.
Netropsin has been shown in previous studies to bind preferentially to A/T rich regions of DNA. […] Netropsin also binds well to the sequence 5′-GCGGTATTT-3′ (SEQ ID NO: 12), which is a useful “indicator” probe (as discussed below), having both C/G and A/T rich sequences. […]

| Structure (SMILES) | CPM ([1]; 100 nM Distamycin, 10 mM Na+) | CPM ([1]; 100 nM Distamycin, 50 mM Na+) | CPM ([1]; 500 nM Distamycin, 10 mM Na+) | CPM ([1]; 500 nM Distamycin, 50 mM Na+) | binding (decrease in fluorescence, FIG. 3A) [2] | binding (decrease in fluorescence, FIG. 3A) [3] | binding (decrease in fluorescence, FIG. 3A) [4] | binding (decrease in fluorescence, FIG. 3A) [5] |
| --- | --- | --- | --- | --- | --- | --- | --- | --- |
| Cn1cc(NC(=O)c2cc(NC(=O)c3cc(NC=O)cn3C)cn2C)cc1C(=O)NCCC(=N)N [Distamycin, distamycin] | 699 CPM | 889 CPM | 744 CPM | 666 CPM | – | – | – | – |
| Cn1cc(NC(=O)c2cc(NC(=O)CN=C(N)N)cn2C)cc1C(=O)NCCC(=N)N [Netropsin, netropsin] | – | – | – | – | does not bind well | binds well | strongly prefers | does not bind well |
